Structures are written as SMILES.

The first assay deals with T1, LPA1 (Homo sapiens, UniProt Q92633).
T1 sequence (Q92633 whole entry): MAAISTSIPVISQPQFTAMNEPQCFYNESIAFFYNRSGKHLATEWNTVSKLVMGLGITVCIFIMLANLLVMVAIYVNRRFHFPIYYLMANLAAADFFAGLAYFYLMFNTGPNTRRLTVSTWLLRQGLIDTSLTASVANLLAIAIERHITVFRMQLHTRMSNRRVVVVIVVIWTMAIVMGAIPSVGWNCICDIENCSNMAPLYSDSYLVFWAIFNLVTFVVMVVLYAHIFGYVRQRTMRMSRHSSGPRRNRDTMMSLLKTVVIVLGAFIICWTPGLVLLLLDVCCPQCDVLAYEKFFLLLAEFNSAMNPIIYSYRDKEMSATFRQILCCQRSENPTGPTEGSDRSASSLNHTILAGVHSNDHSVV
Assay: not given
Particulars: IPF patients, 26-week clinical trial; cited from earlier work.
For `Cc1noc(-c2ccc(-c3ccc(C4(C(=O)O)CC4)cc3)cc2)c1NC(=O)O[C@H](C)c1ccccc1` [BMS-986020], the “rate of FVC (forced vital capacity) decline” value is reported as “significantly reduce”.

Another assay deals with human foetal lung fibroblasts.
Assay: not given
Particulars: induced by BAL obtained from IPF patients; cited from earlier work.
Take `Cc1noc(-c2ccc(CSCCC(=O)O)cc2)c1NC(=O)OC(C)c1ccccc1Cl` (centres unmarked) [Ki16425]: the “chemotaxis of human foetal lung fibroblasts” value was “blocked”.

The subject of another assay is UUO mice.
Assay: not given
Particulars: cited from earlier work.
`Cc1noc(-c2ccc(CSCCC(=O)O)cc2)c1NC(=O)OC(C)c1ccccc1Cl` (centres unmarked) [Ki16425]: the “development of renal fibrosis” value is listed as “closely resembled the profile of LPA1 (−/−) mice”.

In a further assay the test system is mouse epithelial renal cell line, MCT.
Assay: not given
Particulars: LPA treatment of MCT cells, co-treatment; cited from earlier work.
As for `Cc1noc(-c2ccc(CSCCC(=O)O)cc2)c1NC(=O)OC(C)c1ccccc1Cl` (centres unmarked) [Ki16425], the “induction of CTGF expression” value is given as “almost completely suppressed”.

For a further assay, the system named is pancreatic cancer cell lines.
Assay: not given
The following applies: LPA-induced and ascites-induced; highly peritoneal metastatic pancreatic cancer cell line; cited from earlier work.
In the case of `Cc1noc(-c2ccc(CSCCC(=O)O)cc2)c1NC(=O)OC(C)c1ccccc1Cl` (centres unmarked) [Ki16425], the invasion activity entry is recorded as “blocked”.

The assay is the same for the next values; noted with them: in response to LPA and peritoneal fluid (ascites) from pancreatic cancer patients; cited from earlier work.
`Cc1noc(-c2ccc(CSCCC(=O)O)cc2)c1NC(=O)OC(C)c1ccccc1Cl` (centres unmarked) [Ki16425]: the in vitro migration entry was “effectively blocked”.

The target of a further assay is T1, LPA1. Put plainly: LPA1 functional antagonist assay (LPA-induced calcium flux). The assay is classed as cell-based. More on the design: expressed in transfected cells; host or cells: Chinese hamster ovary (CHO) cells. Particulars: CHO cells overexpressing human LPA1; calcium flux induced by 10 nM LPA; read-out: hLPA1 IC50. How it is done: The effectiveness of compounds of the present invention as LPA1 inhibitors can be determined in an LPA1 functional antagonist assay as follows:
Chinese hamster ovary cells overexpressing human LPA1 were plated overnight (15,000 cells/well) in poly-D-lysine coated 384-well microplates (Greiner bio-one, Cat #781946) in DMEM/F12 medium (Gibco, Cat #11039). Following overnight culture, cells were loaded with calcium indicator dye (AAT Bioquest Inc, Cat #34601) for 30 minutes at 37° C. The cells were then equilibrated to room temperature for 30 minutes before the assay. Test compounds solubilized in DMSO were transferred to 384 well non-binding surface plates (Corning, Cat #3575) using the Labcyte Echo acoustic dispense and diluted with assay buffer [1×HBSS with calcium/magnesium (Gibco Cat #14025-092), 20 mM HEPES (Gibco Cat #15630-080) and 0.1% fatty acid free BSA (Sigma Cat # A9205)] to a final concentration of 0.5% DMSO. Diluted compounds were added to the cells by FDSS6000 (Hamamatsu) at final concentrations ranging from 0.08 nM to 5 μM. and were then incubated for 20 min at room temperature at which time LPA (Avanti Polar Lipids Cat #857130C) was added at final concentrations of 10 nM to stimulate the cells. […] IC50 values were determined by fitting data to a 4-parameter logistic equation (GraphPad Prism, San Diego Calif.).
For orientation: Calcium assays in cells follow changes in intracellular calcium, usually with a dye or a luminescent sensor.
Consider `CCCCN(C)C(=O)OCc1c(-c2ccc(O[C@H]3CCC[C@H](C(=O)O)C3)cc2)cnn1C` [Example 64], for which the IC50 (in general, the point on the concentration scale where inhibition reaches its midpoint) came to 23 nM.

`Cc1nc(-c2cnn(C)c2COC(=O)N(C)[C@H](C)C2CC2)ccc1O[C@H]1CCC[C@H](C(=O)O)C1` [Example 65]: the IC50 was 48 nM. The same measure, in the same setting: to `CCCN(C)C(=O)OCc1c(-c2ncc(O[C@H]3CCC[C@H](C(=O)O)C3)c(C)n2)cnn1C` [Example 66, (1S,3S)-3-((4-Methyl-2-(1-methyl-5-(((methyl(propyl)carbamoyl)oxy)methyl)-1H-pyrazol-4-yl)pyrimidin-5-yl)oxy)cyclohexane-1-carboxylic Acid] belongs 214 nM; to `CCCCN(C)C(=O)OCc1c(-c2ncc(O[C@H]3CCC[C@H](C(=O)O)C3)c(C)n2)cnn1C` [Example 67], 59 nM. With `Cc1nc(-c2cnn(C)c2COC(=O)N(C)CC(C)C)ncc1O[C@H]1CCC[C@H](C(=O)O)C1` [Example 68], the IC50 is 214 nM. Take `Cc1nc(-c2cnn(C)c2COC(=O)N(C)CC2CC2)ncc1O[C@H]1CCC[C@H](C(=O)O)C1` [Example 69]: the IC50 was found to be 293 nM. The same measure, in the same setting: to `Cc1nc(-c2cnn(C)c2COC(=O)N(C)C2CCC2)ncc1O[C@H]1CCC[C@H](C(=O)O)C1` [Example 70] belongs 120 nM; to `Cc1nc(-c2cnn(C)c2COC(=O)N(C)C2CCCC2)ncc1O[C@H]1CCC[C@H](C(=O)O)C1` [Example 71], 115 nM; to `Cc1nc(-c2cnn(C)c2COC(=O)N(C)Cc2ccccc2)ncc1O[C@H]1CCC[C@H](C(=O)O)C1` [Example 72], 60 nM. For `Cc1nc(-c2cnn(C)c2COC(=O)N(C)CCCCCF)ncc1O[C@H]1CCC[C@H](C(=O)O)C1` [Example 73], the half-maximal inhibitory concentration (IC50) came out at 142 nM.

Consider `Cc1nc(-c2cnn(C)c2COC(=O)N(C)CCCCF)ncc1O[C@H]1CCC[C@H](C(=O)O)C1` [Example 74], for which the half-maximal inhibitory concentration (IC50) came to 77 nM.

As to `CCCCCN(C)C(=O)OCc1c(-c2ncc(O[C@H]3CCC[C@H](C(=O)O)C3)c(C)n2)cnn1C` [Example 75], the IC50 is 82 nM. On the same count and under the same terms, to `Cc1nc(-c2cnn(C)c2COC(=O)N(C)CC23CC(F)(C2)C3)ncc1O[C@H]1CCC[C@H](C(=O)O)C1` [Example 76] belongs 346 nM. Regarding `Cc1nc(-c2cnn(C)c2COC(=O)N(C)CC23CC(C2)C3)ncc1O[C@H]1CCC[C@H](C(=O)O)C1` [Example 77], the IC50 came to 125 nM. On the same count and under the same terms, to `Cc1nc(-c2cnn(C)c2COC(=O)N(C)CCC2CC2(F)F)ncc1O[C@H]1CCC[C@H](C(=O)O)C1` (some centres unmarked) [Example 78] belongs 317 nM. On to `Cc1nc(-c2cnn(C)c2COC(=O)N(C)C2CCCCC2)ncc1O[C@H]1CCC[C@H](C(=O)O)C1` [Example 79], for which the concentration for half-maximal inhibition (IC50) was determined as 93 nM. Turning to `Cc1nc(-c2cnn(C)c2COC(=O)N(C)CC2CCC2)ncc1O[C@H]1CCC[C@H](C(=O)O)C1` [Example 80], the IC50 came to 71 nM. On the same count and under the same terms, to `Cc1nc(-c2cnn(C)c2COC(=O)NC2CCCCC2)ncc1O[C@H]1CCC[C@H](C(=O)O)C1` [Example 81] belongs 856 nM; to `CCc1nc(-c2cnn(C)c2COC(=O)N(C)Cc2ccccc2)ncc1O[C@H]1CCC[C@H](C(=O)O)C1` [Example 82], 79 nM. The same measure, in the same setting: to `CCc1nc(-c2cnn(C)c2COC(=O)N(C)C2CCCC2)ncc1O[C@H]1CCC[C@H](C(=O)O)C1` [Example 83] belongs 60 nM; to `CCc1nc(-c2cnn(C)c2COC(=O)N(C)CC2CCC2)ncc1O[C@H]1CCC[C@H](C(=O)O)C1` [Example 84], 13 nM; to `CCc1nc(-c2cnn(C)c2COC(=O)N(C)CC2CC2)ncc1O[C@H]1CCC[C@H](C(=O)O)C1` [Example 85], 162 nM. With `CCc1nc(-c2cnn(C)c2COC(=O)N(C)C2CCC2)ncc1O[C@H]1CCC[C@H](C(=O)O)C1` [Example 86], the IC50 amounted to 217 nM. The same measure, in the same setting: then `CCCCN(C)C(=O)OCc1c(-c2ncc(O[C@H]3CCC[C@H](C(=O)O)C3)c(CC)n2)cnn1C` [Example 87], with 33 nM.

Regarding `CCCN(C)C(=O)OCc1c(-c2ncc(O[C@H]3CCC[C@H](C(=O)O)C3)c(CC)n2)cnn1C` [Example 88], the 50% inhibitory concentration (IC50) is 1260 nM. In the case of `CC(C1CC1)N(C)C(=O)OCc1c(-c2ccc(O[C@H]3CCC[C@H](C(=O)O)C3)cc2)cnn1C` (some centres unmarked) [Example 89], the half-maximal inhibitory concentration (IC50) came out at 23 nM. As for `Cc1nc(-c2cnn(C)c2COC(=O)N2CC(C)(C)C2)ccc1O[C@H]1CCC[C@H](C(=O)O)C1` [Example 90], the concentration for half-maximal inhibition (IC50) was found to be 309 nM.

Consider `Cc1nc(-c2cnn(C)c2COC(=O)N(C)C[C@@H]2C[C@H]2C)ncc1O[C@H]1CCC[C@H](C(=O)O)C1` [Example 91], for which the concentration for half-maximal inhibition (IC50) amounted to 32 nM.

For `Cc1nc(-c2cnn(C)c2COC(=O)N(C)C[C@H]2C[C@@H]2C)ncc1O[C@H]1CCC[C@H](C(=O)O)C1` [Example 92], the IC50 came to 45 nM.

The values are drawn from patent publication US11261174B2, “Pyrazole O-linked carbamoyl cyclohexyl acids as LPA antagonists” (BRISTOL-MYERS SQUIBB COMPANY, priority 2017, dated 2022).
